One experiment has as its target T1, DDB1 (Homo sapiens, UniProt Q16531, DEL396-705).
T1 construct: made in house; host or cells: Spodoptera frugiperda SF9 insect cells (Bac-to-Bac)
Put plainly: Microscale thermophoresis, DDB1 without CDK12/cyclin K. The note with it: MST, absence of CDK12/cyclin K. The class given is binding. How it is done:
Finally, the capacity of small molecules to induce a ternary complex between CDK12/cyclin K and DDB1 in vitro was assessed by microscale thermophoresis (MST). […]
The gene of human DDB1 (Uniprot: Q16531) with a beta-propeller B domain deletion (ΔBPB: a.a. 396–705 deleted) was subcloned into pFastBac1 vector with an N-terminal His8-tag and a HRV 3C cleavage site (GeneScript), and the recombinant protein was expressed in Spodoptera frugiperda SF9 insect cells in sf900™ II SFM culture medium using the Bac to Bac™ baculovirus expression system (Gibco™). […]
A protocol to assess ternary binding of molecular glues with CDK12/cycK and DDB1 by MST was established using published procedures for PROTAC interaction with bromodomains and E3 ubiquitin ligases.[38] […] After 5 min incubation at room temperature, the samples were loaded in MO-K022 standard treated capillaries (NanoTemper Technologies) and measured by a Monolith NT.115 Pico instrument (NanoTemper Technologies) at 40% MST power and 20% excitation power (auto-detect) on Pico-Red detector at 22 °C. MST traces were recorded using standard parameters: 5 s MST power off, 30 s MST power on and 5 s MST power off. […]
A general note: MST reads how a fluorescent partner responds to local heating, with and without ligand.

For the next experiment, the target named is T2, Cdk12/CycK and DDB1ΔB (Homo sapiens, UniProt Q16531+Q9NYV4, DEL396-705).
T2 construct: the Cdk12 (714–1063)/CycK (1–267) complex and the DDB1ΔB protein; made in house; host or cells: Sf9 insect cells (MultiBacTurbo)
The experiment is described as follows: Dynamic light scattering of SEC peak fractions. In kind it is binding. The note with it: SEC peak middle fractions, vs negative controls. The protocol:
To evaluate particle size distribution in liquid solution, dynamic light scattering was employed. Specifically, 10 μL fractions from the central region of peaks obtained in analytical size exclusion chromatography runs were analyzed. This analysis was performed using a DynaPro NanoStar 672 (Wyatt Technology) in a disposable DLS MicroCuvette (Wyatt Technology), while maintaining a constant temperature of 25 °C. Each measurement was conducted with an acquisition time of 3 s, and each data point depicted in the Results section represents the average of 20 individual DLS measurements. The hydrodynamic radius of the protein samples was determined using the processing and analysis software DYNAMICS.

T1 sequence (Q16531 with tags, fused parts or gaps DEL396-705): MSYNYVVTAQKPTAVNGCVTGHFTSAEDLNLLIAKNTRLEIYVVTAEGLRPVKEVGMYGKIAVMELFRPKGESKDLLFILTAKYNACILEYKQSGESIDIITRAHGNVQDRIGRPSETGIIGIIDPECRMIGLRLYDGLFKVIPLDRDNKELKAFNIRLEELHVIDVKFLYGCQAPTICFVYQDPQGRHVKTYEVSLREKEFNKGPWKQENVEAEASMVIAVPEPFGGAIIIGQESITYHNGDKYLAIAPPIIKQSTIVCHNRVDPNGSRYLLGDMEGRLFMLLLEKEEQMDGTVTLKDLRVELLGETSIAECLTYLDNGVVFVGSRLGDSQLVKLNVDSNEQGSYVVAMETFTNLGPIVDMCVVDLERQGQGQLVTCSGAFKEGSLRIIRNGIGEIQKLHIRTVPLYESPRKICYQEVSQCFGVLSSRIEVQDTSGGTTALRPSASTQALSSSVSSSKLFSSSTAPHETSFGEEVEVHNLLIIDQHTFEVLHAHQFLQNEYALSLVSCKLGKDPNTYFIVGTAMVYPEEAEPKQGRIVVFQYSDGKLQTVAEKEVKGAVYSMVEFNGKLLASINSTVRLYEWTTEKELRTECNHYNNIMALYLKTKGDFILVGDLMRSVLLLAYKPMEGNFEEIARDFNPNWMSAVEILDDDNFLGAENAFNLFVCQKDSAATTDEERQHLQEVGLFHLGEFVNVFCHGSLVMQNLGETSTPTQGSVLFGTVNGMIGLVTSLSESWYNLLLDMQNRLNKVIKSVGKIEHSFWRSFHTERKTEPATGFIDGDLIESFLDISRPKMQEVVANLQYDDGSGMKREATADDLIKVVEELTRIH
T2 sequence (Q9NYV4 714-1063, stated change not applied): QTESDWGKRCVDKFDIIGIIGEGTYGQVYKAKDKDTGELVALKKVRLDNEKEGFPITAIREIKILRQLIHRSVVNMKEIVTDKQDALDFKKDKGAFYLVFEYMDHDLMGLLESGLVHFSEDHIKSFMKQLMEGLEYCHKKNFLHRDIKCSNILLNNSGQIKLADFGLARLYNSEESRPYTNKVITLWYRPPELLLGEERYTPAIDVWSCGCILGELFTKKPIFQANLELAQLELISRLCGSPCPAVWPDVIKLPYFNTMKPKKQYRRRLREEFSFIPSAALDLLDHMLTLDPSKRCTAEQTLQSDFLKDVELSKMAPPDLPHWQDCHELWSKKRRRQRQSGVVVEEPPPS
T2 sequence (O75909 1-267 partner limits assumed): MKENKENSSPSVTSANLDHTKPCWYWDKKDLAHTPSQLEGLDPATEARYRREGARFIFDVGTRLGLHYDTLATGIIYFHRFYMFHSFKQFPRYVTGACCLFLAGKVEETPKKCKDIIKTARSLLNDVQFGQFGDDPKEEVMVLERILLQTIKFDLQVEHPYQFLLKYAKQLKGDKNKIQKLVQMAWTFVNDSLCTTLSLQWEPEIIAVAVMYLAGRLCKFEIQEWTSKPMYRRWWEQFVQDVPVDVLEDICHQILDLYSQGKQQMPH
T2 sequence (Q16531 with tags, fused parts or gaps DEL396-705): as the sequence (Q16531 with tags, fused parts or gaps DEL396-705) above

Consider `Cn1cc(-n2cnc3c(NCc4nc5cc(Cl)c(Cl)cc5[nH]4)nc(N4CCOCC4)nc32)cn1` [SR-4835], for which, at DDB1, the “binding to DDB1” value is recorded as “did not show binding potential for DDB1”. Also, the “hydrodynamic radius (DLS)” value on Cdk12/CycK and DDB1ΔB is “significantly increased”.

The record behind these values is PMC11494886, “Discovery and design of molecular glue enhancers of CDK12–DDB1 interactions for targeted degradation of cyclin K” (RSC Chemical Biology, 2024).
